Test results reported in ChEMBL document CHEMBL1201862, “PubChem BioAssay data set” (2004).
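Growth conditions: 96-well plates. Treatment: test compound, 48 hours, 5 concentrations. Analysis: linear interpolation between bracketing concentrations; unreached endpoints set to highest concentration. GI50 is the concentration that inhibits growth by half.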 Active and inactive are the calls of the source. Rule as the data show it: active = GI50 up to about 1.1 µM and inactive = higher.

Assays:
Experiment in all cases: growth of human tumour cells (NCI), 48 h
[1] = test system: PC-3
[2] = test system: NCI/ADR-RES
[3] = test system: HOP-62
[4] = test system: BT-549
[5] = test system: NCI-H522
[6] = test system: SK-OV-3
[7] = test system: SW-620
[8] = test system: LOX IMVI
[9] = test system: SR
[10] = test system: Malme-3M
[11] = test system: SK-MEL-2
[12] = test system: K562
[13] = test system: OVCAR-5
[14] = test system: 786-0
[15] = test system: NCI-H460
[16] = test system: Hs-578T
[17] = test system: CCRF-CEM
[18] = test system: SK-MEL-28
[19] = test system: SF-295
[20] = test system: HOP-92

Structure (SMILES)	GI50 [1]	GI50 [2]	GI50 [3]	GI50 [4]	GI50 [5]	GI50 [6]	GI50 [7]	GI50 [8]	GI50 [9]	GI50 [10]	GI50 [11]	GI50 [12]	GI50 [13]	GI50 [14]	GI50 [15]	GI50 [16]	GI50 [17]	GI50 [18]	GI50 [19]	GI50 [20]
COc1ccc2c(c1)c1nn(CCN(C)C)c3ccc4c(=O)n(CCN(C)C)c(=O)n2c4c13	0.0103 µM (active)	0.0148 µM (active)	< 0.01 µM (active)	0.946 µM (active)	< 0.01 µM (active)	< 0.0157 µM (active)	< 0.01 µM (active)	0.0171 µM (active)	< 0.01 µM (active)	0.0904 µM (active)	0.0323 µM (active)	< 0.019 µM (active)	< 0.0223 µM (active)	< 0.01 µM (active)	< 0.01 µM (active)	0.0463 µM (active)	< 0.01 µM (active)	0.22 µM (active)	< 0.01 µM (active)	–
NC(=O)c1nnsc1N/N=C/c1ccc([N+](=O)[O-])cc1	> 100 µM (inactive)	> 100 µM (inactive)	> 100 µM (inactive)	19.7 µM (inactive)	> 100 µM (inactive)	> 100 µM (inactive)	> 100 µM (inactive)	> 100 µM (inactive)	33.9 µM (inactive)	> 100 µM (inactive)	> 100 µM (inactive)	> 100 µM (inactive)	> 100 µM (inactive)	41 µM (inactive)	> 100 µM (inactive)	> 100 µM (inactive)	> 100 µM (inactive)	> 100 µM (inactive)	> 100 µM (inactive)	–
COc1cc(C2OC(N)=C(C#N)C3=C2C(C)CCC3)cc(OC)c1OC (stereo not drawn)	81.5 µM (inactive)	> 100 µM (inactive)	12.7 µM (inactive)	> 100 µM (inactive)	–	80.7 µM (inactive)	> 100 µM (inactive)	> 100 µM (inactive)	0.136 µM (active)	39.9 µM (inactive)	71.8 µM (inactive)	> 100 µM (inactive)	> 100 µM (inactive)	42.6 µM (inactive)	–	55.1 µM (inactive)	> 100 µM (inactive)	> 100 µM (inactive)	28.9 µM (inactive)	–
COC(=O)CSC(=S)Nc1nnc(NC(=S)SCOC(C)=O)n1C(=S)SCC(=O)OC	> 100 µM (inactive)	> 100 µM (inactive)	6.97 µM (inactive)	> 100 µM (inactive)	–	–	> 100 µM (inactive)	> 100 µM (inactive)	> 100 µM (inactive)	–	–	> 100 µM (inactive)	> 100 µM (inactive)	> 100 µM (inactive)	> 100 µM (inactive)	> 100 µM (inactive)	> 100 µM (inactive)	> 100 µM (inactive)	> 100 µM (inactive)	–
CCOC(=O)c1cc2nc3ccccc3c(=O)n2c2ccccc12	> 10 µM (inactive)	> 10 µM (inactive)	> 10 µM (inactive)	> 10 µM (inactive)	> 10 µM (inactive)	> 10 µM (inactive)	> 10 µM (inactive)	> 10 µM (inactive)	–	> 10 µM (inactive)	> 10 µM (inactive)	> 10 µM (inactive)	> 10 µM (inactive)	> 10 µM (inactive)	> 10 µM (inactive)	> 10 µM (inactive)	> 10 µM (inactive)	> 10 µM (inactive)	> 10 µM (inactive)	> 10 µM (inactive)
O=C(Nc1ccccc1)Oc1ccc(C(=S)Nc2ccc(Br)cc2)cc1	22.6 µM (inactive)	15.3 µM (inactive)	28.6 µM (inactive)	12.8 µM (inactive)	11 µM (inactive)	34.5 µM (inactive)	24.5 µM (inactive)	11.9 µM (inactive)	13.4 µM (inactive)	19.2 µM (inactive)	18.3 µM (inactive)	21.5 µM (inactive)	16.6 µM (inactive)	19.4 µM (inactive)	16.9 µM (inactive)	22.9 µM (inactive)	8.57 µM (inactive)	19.4 µM (inactive)	20.6 µM (inactive)	–
OC(c1ccc(F)cc1)C(F)(F)c1nc(-c2ccccc2)no1 (stereo not drawn)	21.8 µM (inactive)	30.6 µM (inactive)	–	17.8 µM (inactive)	2.44 µM (inactive)	–	19.3 µM (inactive)	86.5 µM (inactive)	–	13.9 µM (inactive)	18.9 µM (inactive)	–	18.1 µM (inactive)	20.1 µM (inactive)	0.0632 µM (active)	30.5 µM (inactive)	14.3 µM (inactive)	21.1 µM (inactive)	–	23.7 µM (inactive)
CN1CCCCC1CCN1CCCCC1 (stereo not drawn)	> 100 µM (inactive)	> 100 µM (inactive)	> 100 µM (inactive)	> 100 µM (inactive)	> 100 µM (inactive)	> 100 µM (inactive)	> 100 µM (inactive)	> 100 µM (inactive)	–	> 100 µM (inactive)	> 100 µM (inactive)	> 100 µM (inactive)	> 100 µM (inactive)	> 100 µM (inactive)	> 100 µM (inactive)	> 100 µM (inactive)	–	> 100 µM (inactive)	> 100 µM (inactive)	> 100 µM (inactive)
COc1ccc(N2C(=O)C3c4[nH]c5cc(Cl)ccc5c4C4CCC(C(C)(C)C)CC4C3C2=O)cc1 (stereo not drawn)	29.2 µM (inactive)	> 100 µM (inactive)	> 100 µM (inactive)	> 100 µM (inactive)	> 100 µM (inactive)	> 100 µM (inactive)	69.8 µM (inactive)	–	12.6 µM (inactive)	–	–	33.6 µM (inactive)	–	> 100 µM (inactive)	35.9 µM (inactive)	26.2 µM (inactive)	37.9 µM (inactive)	> 100 µM (inactive)	> 100 µM (inactive)	–
CC(Cl)CC(=O)OCC1CCCN2CCCCC12 (stereo not drawn)	> 100 µM (inactive)	> 100 µM (inactive)	> 100 µM (inactive)	> 100 µM (inactive)	–	> 100 µM (inactive)	> 100 µM (inactive)	> 100 µM (inactive)	–	> 100 µM (inactive)	> 100 µM (inactive)	> 100 µM (inactive)	> 100 µM (inactive)	> 100 µM (inactive)	> 100 µM (inactive)	> 100 µM (inactive)	> 100 µM (inactive)	> 100 µM (inactive)	> 100 µM (inactive)	> 100 µM (inactive)
CC(C)(C)OC[C@H](O)CC#N	> 100 µM (inactive)	–	> 100 µM (inactive)	> 100 µM (inactive)	–	> 100 µM (inactive)	> 100 µM (inactive)	> 100 µM (inactive)	> 100 µM (inactive)	> 100 µM (inactive)	> 100 µM (inactive)	> 100 µM (inactive)	> 100 µM (inactive)	> 100 µM (inactive)	> 100 µM (inactive)	> 100 µM (inactive)	> 100 µM (inactive)	> 100 µM (inactive)	> 100 µM (inactive)	–
CCOC(=O)n1c2ccccc2c(=O)n1CCO	> 100 µM (inactive)	> 100 µM (inactive)	> 100 µM (inactive)	> 100 µM (inactive)	> 100 µM (inactive)	> 100 µM (inactive)	> 100 µM (inactive)	–	> 100 µM (inactive)	> 100 µM (inactive)	> 100 µM (inactive)	> 100 µM (inactive)	> 100 µM (inactive)	> 100 µM (inactive)	> 100 µM (inactive)	> 100 µM (inactive)	> 100 µM (inactive)	> 100 µM (inactive)	> 100 µM (inactive)	–
COc1ccc2nc3cc(Cl)ccc3c(NCCCN3CCN(CCCNc4ccc5nnn6c7ccccc7c(=O)c4c56)CC3)c2c1	> 6.01 µM (inactive)	4.89 µM (inactive)	> 25 µM (inactive)	5.24 µM (inactive)	0.391 µM (active)	> 25 µM (inactive)	0.0458 µM (active)	0.512 µM (active)	–	–	> 25 µM (inactive)	–	> 21.2 µM (inactive)	0.646 µM (active)	0.0995 µM (active)	> 25 µM (inactive)	0.17 µM (active)	> 25 µM (inactive)	2.37 µM (inactive)	> 25 µM (inactive)
Cc1cc(S(=O)(=O)O)ccc1/N=N/c1ccc(/N=N/c2c(O)ccc3ccccc23)c(C)c1	> 100 µM (inactive)	> 100 µM (inactive)	> 100 µM (inactive)	> 100 µM (inactive)	26 µM (inactive)	> 100 µM (inactive)	42.3 µM (inactive)	26.9 µM (inactive)	–	> 100 µM (inactive)	> 100 µM (inactive)	> 100 µM (inactive)	> 100 µM (inactive)	21.3 µM (inactive)	–	> 100 µM (inactive)	18.1 µM (inactive)	67.3 µM (inactive)	94.8 µM (inactive)	46.7 µM (inactive)
C[N+](C)(C)CC1CCC(C[N+](C)(C)C)C1=O (stereo not drawn)	17.2 µM (inactive)	–	19.2 µM (inactive)	17 µM (inactive)	0.2 µM (active)	23.4 µM (inactive)	–	4.84 µM (inactive)	0.4 µM (active)	1.08 µM (active)	14.9 µM (inactive)	0.359 µM (active)	7.28 µM (inactive)	1.91 µM (inactive)	24.3 µM (inactive)	38.6 µM (inactive)	–	–	20.5 µM (inactive)	0.92 µM (active)
Clc1ccccc1C(c1ccccc1)(c1ccccc1)n1ccnc1 [CLOTRIMAZOLE]	7.03 µM (inactive)	9.25 µM (inactive)	11.4 µM (inactive)	8.05 µM (inactive)	6.38 µM (inactive)	14.5 µM (inactive)	12 µM (inactive)	–	–	4.8 µM (inactive)	12.1 µM (inactive)	5.97 µM (inactive)	11.8 µM (inactive)	14.9 µM (inactive)	10.7 µM (inactive)	15.1 µM (inactive)	5.93 µM (inactive)	16.2 µM (inactive)	9.95 µM (inactive)	11.8 µM (inactive)
